{"source": "patent US12122763B2", "about": "“Substituted piperidines for androgen receptor degradation” (UBIX THERAPEUTICS, INC., priority 2020, dated 2024)", "format_in_all_cases": "cell-based", "key": {"[1]": {"molecular_target": "T1, Androgen Receptor (AR) protein (Homo sapiens, UniProt P10275, T878A)", "T1 construct": "endogenous in cells; host or cells: LNCaP", "T1 sequence (P10275 whole entry T878A)": "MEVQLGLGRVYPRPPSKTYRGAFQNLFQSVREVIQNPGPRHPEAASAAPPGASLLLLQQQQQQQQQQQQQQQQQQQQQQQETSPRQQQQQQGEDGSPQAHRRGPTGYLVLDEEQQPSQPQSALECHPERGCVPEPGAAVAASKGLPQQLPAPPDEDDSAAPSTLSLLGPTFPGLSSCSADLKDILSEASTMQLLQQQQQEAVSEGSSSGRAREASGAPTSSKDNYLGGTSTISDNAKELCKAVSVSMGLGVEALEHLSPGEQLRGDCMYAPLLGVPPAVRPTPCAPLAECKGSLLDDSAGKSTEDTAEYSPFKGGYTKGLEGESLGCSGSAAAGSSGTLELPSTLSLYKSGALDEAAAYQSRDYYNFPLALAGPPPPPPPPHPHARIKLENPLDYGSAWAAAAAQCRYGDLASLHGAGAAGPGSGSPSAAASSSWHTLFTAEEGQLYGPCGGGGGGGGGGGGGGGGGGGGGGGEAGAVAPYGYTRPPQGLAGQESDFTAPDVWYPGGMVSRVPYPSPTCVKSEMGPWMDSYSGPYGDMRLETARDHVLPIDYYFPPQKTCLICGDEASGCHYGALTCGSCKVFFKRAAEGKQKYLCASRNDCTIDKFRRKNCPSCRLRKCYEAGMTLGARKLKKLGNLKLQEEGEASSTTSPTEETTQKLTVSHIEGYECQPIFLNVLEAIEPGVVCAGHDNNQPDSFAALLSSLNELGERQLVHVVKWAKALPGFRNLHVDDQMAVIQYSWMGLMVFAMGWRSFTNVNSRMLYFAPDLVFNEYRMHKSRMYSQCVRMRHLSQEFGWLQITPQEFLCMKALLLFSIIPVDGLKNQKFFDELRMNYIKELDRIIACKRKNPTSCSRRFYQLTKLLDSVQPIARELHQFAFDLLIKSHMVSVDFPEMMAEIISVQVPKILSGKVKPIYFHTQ", "T1 sequence (Q96SW2 whole entry partner)": "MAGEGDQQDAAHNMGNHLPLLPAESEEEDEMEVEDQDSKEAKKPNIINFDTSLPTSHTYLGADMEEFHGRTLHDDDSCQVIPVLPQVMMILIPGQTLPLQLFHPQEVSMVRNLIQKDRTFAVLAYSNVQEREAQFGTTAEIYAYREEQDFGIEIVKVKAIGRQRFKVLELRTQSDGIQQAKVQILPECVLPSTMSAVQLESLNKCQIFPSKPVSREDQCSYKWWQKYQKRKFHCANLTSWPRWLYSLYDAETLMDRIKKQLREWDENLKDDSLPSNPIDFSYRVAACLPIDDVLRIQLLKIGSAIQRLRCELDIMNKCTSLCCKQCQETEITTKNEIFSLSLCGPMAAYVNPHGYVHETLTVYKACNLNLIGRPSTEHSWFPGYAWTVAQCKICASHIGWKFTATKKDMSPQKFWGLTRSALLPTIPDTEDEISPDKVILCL", "assay": "Androgen Receptor (AR) protein degradation assay in LNCaP cells, western blotting", "settings": "20 h", "method_in_brief": "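AR protein level was detected by western blot (ECL) against GAPDH or β-actin controls, with 8 μg lysate protein loaded per lane after BCA quantification. Lysates came from LNCaP cells exposed to test compound for 20 h, following 3 days of growth in RPMI/10% FBS.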"}, "T877A AR mutant": {"molecular_target": "T877A AR mutant (Homo sapiens, UniProt P10275, T878A)", "sequence (P10275 whole entry T878A)": "as the sequence (P10275 whole entry T878A) above", "sequence (Q96SW2 whole entry partner)": "as the sequence (Q96SW2 whole entry partner) above", "assay": "Degradation of AR mutant T877A", "settings": "at a concentration of 100 nM", "source_text": "On the other hand, the compounds of the present invention have excellent degradation activity against AR mutants (T877A, M896V, F876L, H874Y, L702H, W741C, etc.). Since resistance to existing anti-androgen receptor drugs can be caused by AR mutation, the excellent AR mutant-degrading activity of the compounds of the present invention can help overcome resistance to existing drugs."}, "AR-V7": {"molecular_target": "T2, AR-V7 (Homo sapiens, UniProt P10275)", "T2 sequence (P10275 1-644 isoform P10275-3)": "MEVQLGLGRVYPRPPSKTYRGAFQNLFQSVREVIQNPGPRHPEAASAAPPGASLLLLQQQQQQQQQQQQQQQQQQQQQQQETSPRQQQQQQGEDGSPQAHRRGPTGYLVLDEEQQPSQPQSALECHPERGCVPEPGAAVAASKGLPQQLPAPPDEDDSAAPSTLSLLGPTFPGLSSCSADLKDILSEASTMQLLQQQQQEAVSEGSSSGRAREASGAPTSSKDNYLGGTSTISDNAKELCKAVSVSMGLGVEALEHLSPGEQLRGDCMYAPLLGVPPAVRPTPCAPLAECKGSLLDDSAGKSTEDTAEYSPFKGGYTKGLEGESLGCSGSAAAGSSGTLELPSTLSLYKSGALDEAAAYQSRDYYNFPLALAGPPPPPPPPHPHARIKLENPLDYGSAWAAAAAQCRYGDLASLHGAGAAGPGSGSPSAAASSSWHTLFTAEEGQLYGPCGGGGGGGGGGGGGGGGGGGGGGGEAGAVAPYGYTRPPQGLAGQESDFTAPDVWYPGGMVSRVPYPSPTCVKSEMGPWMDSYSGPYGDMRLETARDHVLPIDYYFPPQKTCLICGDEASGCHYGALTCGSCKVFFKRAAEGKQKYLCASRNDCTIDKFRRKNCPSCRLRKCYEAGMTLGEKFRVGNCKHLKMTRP", "assay": "Reduction of expression of AR splicing variant AR-V7", "settings": "at a concentration of 100 nM", "source_text": "In addition, another mechanism by which resistance to existing treatments occurs is the expression of AR splicing variants (eg, AR-V7). The compounds of the present invention are excellent in reducing the expression of these variants (eg, AR-V7), and thus have a better anti-proliferative effect in AR-V7 positive prostate cancer cells. For example, the compounds of Examples 6 and 169 of the present disclosure inhibited the expression of AR-V7 by 87% and 48%, respectively, at a concentration of 100 nM."}}}
{"smiles": "N#Cc1ccc(N2CCC(C(=O)Nc3ccc(N4CCC(CN5CCN(CC6CCN(c7ccc8c(c7)C(=O)N(C7CCC(=O)NC7=O)C8=O)CC6)CC5)CC4)cn3)CC2)cc1C(F)(F)F", "note": "(stereo not drawn) [Example 6, 1-(4-cyano-3-(trifluoromethyl)phenyl)-N-(5-(4-((4-((1-(2-(2,6-dioxopiperidin-3-yl)-1,3-dioxoisoindolin-5-yl)piperidin-4-yl)methyl)piperazin-1-yl)methyl)piperidin-1-yl)pyridin-2-yl)piperidine-4-carboxamide]", "values": [{"measurement": "inhibition at 0.01 µM", "setting": "[1]; 0.01 μM compound", "value": 83, "unit": "%"}, {"measurement": "inhibition at 0.1 µM", "setting": "[1]; 0.1 μM compound", "value": 99, "unit": "%"}, {"measurement": "inhibition at 1 µM", "setting": "[1]; 1 μM compound", "value": 99, "unit": "%"}, {"measurement": "inhibition at 10 µM", "setting": "[1]; 10 μM compound", "value": 97, "unit": "%"}, {"measurement": "degradation activity for the T877A AR mutant", "setting": "T877A AR mutant", "value": 73, "unit": "%"}, {"measurement": "inhibited the expression of AR-V7", "setting": "AR-V7", "value": 87, "unit": "%"}]}
